Experimental findings from patent US20170029531A1, “INHIBITION OF LACTATE DEHYDROGENASE 5 (LDH-5) BINDING, INCORPORATION, INTERNALIZATION AND/OR ENDOCYTOSIS TO IMMUNE CELLS” (Seattle Children's Hospital (dba Seattle Children's …, priority 2014, published 2017) are described below.

In one assay the test system is U87. Briefly: U87 uptake of fluorescently labeled LDH5, flow cytometry. Type of assay: cell-based. Here is the method: FIG. 26. U87 uptake. […] Fluorescently labeled LDH5 and Transferrin were pre-incubated with anti-LDHa at equilmolar concentrations. The antibody protein combination were then fed to U87 for 30 min. Cells were then trypsinized, acid washed, fixed in 2% PFA. Fluorescence intensity was obtained by flow cytometry. Anti-LDHa blocks uptake by approximately 50%, but has no effect on Transferrin uptake. N=2, p<0.05.
FIG. 27. U87 uptake. […] Fluorescently labeled LDH5 and Transferrin were incubated with U87 in the presence or absence of 20 mM oxamate for 30 min. Cells were then trypsinized, acid washed, fixed in 2% PFA. Fluorescence intensity was obtained by flow cytometry. N=1.
FIG. 28. U87 uptake. […] Fluorescently labeled LDH5 and Transferrin were incubated with U87 in the presence or absence of equimolar MDH for 30 min. Cells were then trypsinized, acid washed, fixed in 2% PFA. Fluorescence intensity was obtained by flow cytometry. N=1.
FIG. 29. U87 uptake. […] Cells were pre-incubated with 30 uM Dyngo 4a or 18 uM Pitstop. Fluorescently labeled LDH5 was then added for 30 min. Cells were then trypsinized, acid washed, fixed in 2% PFA. Fluorescence intensity was obtained by flow cytometry.
Experimental wells were pulsed with 10 ug/mL LDH-A488 for 30 min or 24 hours as indicated (control wells received no LDH) at 37° C. Cells were treated for 2 min with 0.5M acetic acid+150 mM NaCl (pH 2.5), followed by 4 subsequent washes in RPMI+10% FBS. […] (See FIGS. 26-29).
(Flow cytometry measures light scatter and fluorescence of single cells or particles in a stream.)

The test system of the next assay is Tumor cells. Briefly: LDH-5 internalization by tumor cells, flow cytometry (FIGS. 16-19). Conditions: sodium oxamate, FIG. 18. Type of assay: cell-based. The method, then:
FIG. 17. Tumor cells internalize LDH-5, which can be reduced by antibody blocking. 10 ug/ml of LDH5 specific monoclonal antibody was added to cells 1 hour prior to culture with LDH5 as described above and evaluated for internalization using flow cytometry to evaluate fluorescence.
FIG. 19. LDH-5 internalization is receptor mediated and Clathrin dependent. LDH5 internalization is reduced with receptor mediated endocytosis inhibitors.
LDH5 internalization is reduced with receptor mediated endocytosis inhibitors. This supports that internalization is mediated by a specific receptor, as opposite to bulk phagocytosis.

Assay [1] relates to monocytes from healthy donors. Briefly: NKG2D ligand (MICA, MICB, ULBP-1) mRNA induction in monocytes from healthy donors (MHD), qPCR. Conditions: U87 supernatant with sodium oxamate (100 mM in FIG. 2 panel E; 20 mM in the LDH inhibition method); 18 h; qPCR. Type of assay: cell-based, human. An excerpt:
FIG. 2. Biochemical purification of tumor-derived Lactate Dehydrogenase, expression in glioma cell lines and verification of LDH-mediated induction of NKG2D ligands on monocytes. (Panel A) Protein purification strategy. […] of U87 glioblastoma cell line supernatant were subjected to ammonium sulfate precipitation. Active fractions were passed over a phenyl Sepharose column and active fractions were then subjected to size exclusion (Superdex 200), followed by ion exchange (MonoS) before Mass Spectroscopy (MS) analysis. (Panel B) Following separation by chromatography, fractions were dialyzed into PBS and cultured with MHD (healthy monocytes) for 18 hours. Whole cell mRNA was reverse transcribed, and induction of MICB and ULBP-1 was analyzed relative to media alone controls. Western blot analysis using a monoclonal antibody to LDH-5 (ab101562) was performed on […] of total protein to confirm the presence of LDH-5 in the active fractions. (Panel C) mRNA isolated from PBMC of healthy donors, 293T cells (as negative controls), and U87, U251, and SF767 glioma cell lines were analyzed for expression of LDHA and LDHB by qPCR. (Panel D) A 1:10 dilution of fresh, unfrozen glioblastoma cell line supernatants was analyzed for total LDH enzymatic activity and expressed as OD 495 nm. (Panel E) Validation of LDH induction of NKG2D ligands in monocytes. Six hundred twenty five U/L of purified, native LDH-5, fresh U87 supernatant, or fresh U87 supernatant in the presence of 100 mM sodium oxamate (NaOx) were cultured with MHD. Eighteen hours later, mRNA was isolated and analyzed for MICA, MICB, and ULBP-1 by qPCR. Values represent induction relative to MHD cultured in media alone. (Panel F) Fresh U87 supernatant, 625 U/L of purified, native LDH-5, LDH-5+0.5 mM Pyruvate (Pyr), or LDH-5+0.5 mM pyruvate and 100 mM NaOx were cultured with MHD. Eighteen hours later, mRNA was isolated and analyzed for MICA, MICB and ULBP-1 by qPCR. Values represent induction relative to MHD cultured in media alone. (Panel G) MHD were cultured with native LDH-5 isolated from liver cells. Eighteen hours later, MICB (black bars) and ULBP-1 (gray bars) were measured by qPCR. (Panel H) Expression of NKG2D and NKp46 on primary human NK cells following a 12 hour incubation with LDH (50 ug/mL) or lactate (20 mM). Cells were surface stained with antibodies directed against CD3, CD56, NKG2D, and NKp46 and analyzed by flow cytometry. The expression level of NKG2D and NKp46 are plotted against CD56. (Panel I) Expression of CD107a on primary human NK cells following IL-2 (1000 U/ml) activation and a 6 hour incubation with LDH (50 ug/mL) or lactate (20 mM). Cells were surface stained with antibodies directed against CD3, CD56, and CD107a and analyzed by flow cytometry. Representative data are shown in the top panels, a summary of percent CD107a+NK cells is shown below. (Panel J) 293T cells were transiently transfected with a pcDNA3.1 (−) vector encoding either LDHA or LDHB, or both constructs. Supernatant was then cultured with CD14-positively selected MHD. Eighteen hours later, MICB and ULBP-1 were measured by qPCR. Values represent induction relative to monocytes cultured in media alone. *P<0.05, **P<0.01.
FIG. 21. Purified native LDH5 or LDH1 was cultured with monocytes from healthy donors. Eighteen hours later, MICB and ULBP-1 were measured by qPCR. Values represent induction relative to monocytes cultured in medium alone. […]

Assay [2] concerns monocytes, or monocyte derived macrophages. Briefly: Uptake of fluorescently labeled LDH5 by monocytes / monocyte derived macrophages (CD14+ cells), flow cytometry. Conditions: monocyte derived macrophages pre-incubated with 25 uM chlorpromazine for 30 min, labeled LDH5 for a further 30 min; N=2. Type of assay: cell-based, human. The method, then: FIG. 23. […] Fluorescently labeled LDH5 was pre-incubated with anti-LDHa at equilmolar concentrations. The antibody protein combination was then fed to monocytes, or monocyte derived macrophages for 30 min. Cells were then trypsinized, acid washed, fixed in 2% PFA. Fluorescence intensity was obtained by flow cytometry. Anti-LDHa blocks uptake by approximately 50%. Macrophages N=1, Monocytes N=2.
FIG. 24. […] Monocyte derived macrophages were pre-incubated with 25 uM chlorpromazine for 30 min. Fluorescently labeled LDH5 was then added for an additional 30 min. Cells were then trypsinized, acid washed, fixed in 2% PFA. Fluorescence intensity was obtained by flow cytometry. N=2
FIG. 25. […] Fluorescently labeled LDH5 was incubated with U87 in the presence or absence of equimolar MDH for 30 min. Cells were then trypsinized, acid washed, fixed in 2% PFA. Fluorescence intensity was obtained by flow cytometry. N=2.
In an experiment utilizing the antibody with LDH5 in serum, the LDH5 complexed to the antibody was added to macrophages and to a sample of monocytes. […] Monocyte derived macrophages were pre-incubated with 25 uM chlorpromazine for 30 min. […] Fluorescence intensity was obtained by flow cytometry. […] Fluorescence intensity was obtained by flow cytometry. Cells exposed to LDH5-A488 were compared to cells without and amount of fluorescence was determined to represent amount of LDH5 inside of the cell.

A further assay deals with primary human NK cells. Nature of the assay: NKG2D expression and CD107a degranulation of primary human NK cells after incubation with LDH or lactate. Type of assay: cell-based. Conditions: LDH 50 ug/mL or lactate 20 mM; 12 hour (NKG2D, NKp46) or 6 hour after IL-2 (CD107a). An excerpt:
FIG. 2. Biochemical purification of tumor-derived Lactate Dehydrogenase, expression in glioma cell lines and verification of LDH-mediated induction of NKG2D ligands on monocytes. (Panel A) Protein purification strategy. […] of U87 glioblastoma cell line supernatant were subjected to ammonium sulfate precipitation. Active fractions were passed over a phenyl Sepharose column and active fractions were then subjected to size exclusion (Superdex 200), followed by ion exchange (MonoS) before Mass Spectroscopy (MS) analysis. (Panel B) Following separation by chromatography, fractions were dialyzed into PBS and cultured with MHD (healthy monocytes) for 18 hours. Whole cell mRNA was reverse transcribed, and induction of MICB and ULBP-1 was analyzed relative to media alone controls. […] (Panel C) mRNA isolated from PBMC of healthy donors, 293T cells (as negative controls), and U87, U251, and SF767 glioma cell lines were analyzed for expression of LDHA and LDHB by qPCR. (Panel D) A 1:10 dilution of fresh, unfrozen glioblastoma cell line supernatants was analyzed for total LDH enzymatic activity and expressed as OD 495 nm. […] Eighteen hours later, mRNA was isolated and analyzed for MICA, MICB, and ULBP-1 by qPCR. […] Eighteen hours later, mRNA was isolated and analyzed for MICA, MICB and ULBP-1 by qPCR. […] Eighteen hours later, MICB (black bars) and ULBP-1 (gray bars) were measured by qPCR. […]

The target of assay [3] is MHC class I polypeptide-related sequence B (MICB) on monocytes (human) (UniProt Q29980). Nature of the assay: cell-based or functional assay.
Assay [4] has as its target UL16-binding protein 1 (ULBP1) on monocytes (human) (UniProt Q9BZM6). Briefly: cell-based or functional assay.
Chain of UniProt Q9BZM6 (Q9BZM6 26-216): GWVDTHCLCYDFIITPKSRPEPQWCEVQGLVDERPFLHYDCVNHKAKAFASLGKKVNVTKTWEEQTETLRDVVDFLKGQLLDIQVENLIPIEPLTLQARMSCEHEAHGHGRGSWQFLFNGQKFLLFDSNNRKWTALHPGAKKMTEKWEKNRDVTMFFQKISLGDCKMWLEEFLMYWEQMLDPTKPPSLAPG

Chain of UniProt Q29980 (Q29980 23-383): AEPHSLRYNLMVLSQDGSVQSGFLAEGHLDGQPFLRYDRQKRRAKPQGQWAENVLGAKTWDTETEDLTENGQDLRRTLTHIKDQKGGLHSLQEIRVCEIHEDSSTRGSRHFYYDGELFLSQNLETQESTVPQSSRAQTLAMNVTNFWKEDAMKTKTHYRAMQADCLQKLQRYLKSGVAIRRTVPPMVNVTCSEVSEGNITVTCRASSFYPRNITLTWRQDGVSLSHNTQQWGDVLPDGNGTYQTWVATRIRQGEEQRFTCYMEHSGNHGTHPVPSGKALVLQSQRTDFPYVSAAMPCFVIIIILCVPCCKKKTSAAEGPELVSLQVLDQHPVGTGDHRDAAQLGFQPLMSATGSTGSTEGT

For `O=C(N/N=C/c1cc(O)c(O)cc1O)c1cc2ccccc2cc1O` [Dyngo 4a], the “LDH5 uptake, effect in words” value in the assay on U87 (U87 pre-incubated with 30 uM Dyngo 4a, labeled LDH5 for 30 min) is “block LDH5 uptake”.

For `O=C1N=C(NS(=O)(=O)c2cccc3ccccc23)SC1=Cc1ccc(Br)cc1` [Pitstop], the “LDH5 uptake, effect in words” value in the assay with U87 (U87 pre-incubated with 18 uM Pitstop, labeled LDH5 for 30 min) is given as “block LDH5 uptake”.

`NC(=O)C(=O)[O-].[Na+]` [Sodium oxamate, sodium oxamate, reference compound]: the “LDH-5 internalization in tumor cells, effect in words” value in the assay with Tumor cells was “reduces internalization”. Besides, the “LDH5 uptake, effect in words” value in the assay on U87 (U87, 20 mM oxamate, 30 min, N=1) is listed as “blocks LDH5 uptake”. The “Ability of U87 supernatant to induce NKG2D ligands (mRNA) on MHD” value in assay [1] is given as “significantly reduced”.

For `CN(C)CCCN1c2ccccc2Sc2ccc(Cl)cc21` [chlorpromazine], the “LDH5 uptake, effect in words” value in assay [2] is “blocks LDH5 uptake”.

For `CC(O)C(=O)O` (centres unmarked) [lactate], the “NK cell NKG2D expression or degranulation” value in the assay on primary human NK cells is “neither lactate nor LDH-5 alone directly impacted”.

As for “Natural killer group 2, member D (NKG2D) receptor on NK cells (from UniProt P26718 1-216)”, in assay [3], the IFN-γ production by degranulating NK cells came out at 20.2% and the degranulation of IL-2-activated NK cells turned out to be 75.3%. In assay [4], this compound returned an IFN-γ production by degranulating NK cells of 20.2% and a degranulation of IL-2-activated NK cells of 75.3%.
